The numbers were not newly measured in patent publication US20050095286A1, “Extended release compositions” (Fabre Kramer Pharmaceuticals, Inc., priority 2003, published 2005), which cites them from elsewhere.

In data set [1] the target is T1, 5-HT1A receptor binding sites (Homo sapiens, UniProt P08908).
T1 sequence (P08908 1-422): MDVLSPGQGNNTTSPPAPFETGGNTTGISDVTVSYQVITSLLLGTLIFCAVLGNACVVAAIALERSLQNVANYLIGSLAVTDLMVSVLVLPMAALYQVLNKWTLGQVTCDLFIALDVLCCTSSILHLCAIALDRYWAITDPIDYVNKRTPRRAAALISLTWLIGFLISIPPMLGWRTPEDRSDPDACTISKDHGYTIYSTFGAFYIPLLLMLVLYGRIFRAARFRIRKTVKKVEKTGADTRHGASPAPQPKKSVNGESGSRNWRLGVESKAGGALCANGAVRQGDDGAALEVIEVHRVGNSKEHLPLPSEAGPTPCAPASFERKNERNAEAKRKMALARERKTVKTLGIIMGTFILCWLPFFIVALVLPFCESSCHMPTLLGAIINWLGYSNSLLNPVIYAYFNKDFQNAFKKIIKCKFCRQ
As to conditions: background statement, U.S. Pat. No. 5,010,078.

Data set [2] deals with D2-receptor binding sites (Homo sapiens, UniProt P14416). The settings on record: background statement, U.S. Pat. No. 5,010,078.
For data set [3], the target named is T2, 5HT1a-receptors (Homo sapiens, UniProt P08908).
T2 sequence (P08908 1-422): T1 sequence (P08908 1-422)
The settings on record: background statement.

The conditions of data set [4]: background statement.

Sequence of D2-receptor binding sites (P14416 whole entry): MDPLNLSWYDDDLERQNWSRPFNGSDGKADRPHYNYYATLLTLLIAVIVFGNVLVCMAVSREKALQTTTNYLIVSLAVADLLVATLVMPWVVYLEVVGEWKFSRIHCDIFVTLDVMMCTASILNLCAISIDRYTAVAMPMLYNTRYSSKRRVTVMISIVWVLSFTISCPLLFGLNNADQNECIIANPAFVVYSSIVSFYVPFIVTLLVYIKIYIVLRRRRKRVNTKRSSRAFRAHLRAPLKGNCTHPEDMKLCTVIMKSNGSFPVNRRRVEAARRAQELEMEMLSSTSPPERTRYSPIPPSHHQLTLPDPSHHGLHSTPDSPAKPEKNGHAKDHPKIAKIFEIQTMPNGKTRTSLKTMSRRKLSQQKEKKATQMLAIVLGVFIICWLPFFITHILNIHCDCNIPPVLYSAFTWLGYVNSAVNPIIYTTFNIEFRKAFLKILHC

Take `O=C(NCCN1CCN(c2ncccn2)CC1)[C@]12C[C@H]3C[C@@H](C[C@H](C3)C1)C2` [adatanserin]: in data set [1], the “affinity for the 5-HT1A receptor binding site” value is “high affinity”; the “selectivity at the 5-HT1A and 5-HT2 versus D2 receptor binding sites” value is listed as “demonstrated selectivity”. In addition, the “affinity for the D2-receptor binding site” value in data set [2] is listed as “high affinity”.

As for `Cl.O=c1c(CO)coc2cc(OCCCN3CCC(c4noc5cc(F)ccc45)CC3)ccc12` [abaperidone], the “affinity to 5HT1a-receptors” value in data set [3] was “high affinity”. Further, the therapeutic index entry in data set [4] is on record as “high therapeutic index”.
